Measured values from a melting point compilation (Tetko et al.).

SMILES	melting point [°C]
CC(N)=NO	118 to 120
O=C1CCCC(C(=O)O)N1 (stereo unspecified)	94 to 96
Cc1ccc(C)c(S(N)(=O)=O)c1	149 to 151
NS(=O)(=O)c1cccc(C(=O)O)c1	238 to 240
COc1ccc(C=O)cc1OC(F)F	34 to 38
CS(=O)(=O)c1ccc(Br)c(S(=O)(=O)Cl)c1	160 to 162
O=C(O)C1CCSC1 (stereo unspecified)	60 to 62
CC(=O)CCCCCCC(=O)O	38 to 40
NC(=O)N1CCc2ccccc2C1	170 to 172
CC(C(=O)O)c1cccc(Cl)c1 (stereo unspecified)	75 to 77
O=C(O)c1ccc(N2CCCc3ccccc32)cc1	214 to 216
COC(=O)c1ccc(CN2CCC(CO)CC2)cc1	54 to 56
Cc1ccc(S(=O)(=O)Nc2cccc(C(F)(F)F)c2)cc1N	116 to 118
O=[N+]([O-])c1cc(NCC2CC2)ccc1S(=O)(=O)NCC1CC1	132 to 134
Nc1ccc(F)c(S(=O)(=O)Nc2ccc(Br)cc2)c1	161 to 163
OC(c1ccncc1)c1ccc(F)cc1 (stereo unspecified)	136 to 138
COc1ccc(C2C(C(=O)O)CC(=O)N2C)cc1 (stereo unspecified)	183 to 185
O=C(O)c1ccc2c(c1)C(=O)N(CCc1ccccc1)C2=O	215 to 217
O=C(CCl)Nc1nnc(C2CC2)o1	148 to 150
O=C(O)CSc1nnc(-c2cccs2)n1C1CC1	229 to 231
O=c1[nH]cnc2c1cnn2-c1ccc(F)cc1	243 to 246
Cc1cc(N)n(-c2nc3ccccc3o2)n1	221 to 223
c1cn(C2CCNCC2)cn1	135 to 137
N#Cc1cc(Br)cc(S(=O)(=O)Cl)c1	74 to 76

SMILES	melting point [°C]
O=C(O)c1ccc(CS)cc1	179 to 181
O=Cc1cc(Br)c2c(c1)OCCCO2	73 to 75
O=C(CCl)Nc1ccc(N2CCCC2=O)cc1	258 to 260
CCc1cc2oc(=O)cc(CCl)c2cc1Cl	170 to 172
NNC(=O)C1COc2ccccc2O1 (stereo unspecified)	111 to 113
Cc1cnc2c(Cl)nccc2n1	139 to 141
Cc1cc(Br)ccc1N1CC(C(=O)O)CC1=O (stereo unspecified)	81 to 83
O=C(O)C=Cc1nc2ccccc2s1	222 to 224
Cn1c(=O)c2cc(S(=O)(=O)Cl)cnc2n(C)c1=O	171 to 173
Nc1ccn(-c2ncccc2F)n1	89 to 91
NCc1cccc(NC(=O)c2ccccn2)c1	74 to 76
C1C2CC3CC1CC(C2)C31CO1 (stereo unspecified)	180 to 182
O=C(O)c1ccc2c3c(cccc13)CC2	220 to 223
CCc1cc(O)ncn1	135 to 137
Clc1ccc2nc(-c3ccccn3)[nH]c2c1	133 to 135
CC(Cl)C(=O)NC1CCOc2ccccc21 (stereo unspecified)	129 to 131
NC(=S)NCCc1cccs1	127 to 129
O=C(O)c1cc2ccccc2cc1NC(=O)C1CC1	235 to 237
OC1CCOc2ccc(Br)cc21 (stereo unspecified)	91 to 93
CS(=O)(=O)Cc1cc(N)ccc1Cl	135 to 137
COc1ccc(-c2csc(CC#N)n2)cc1OC	101 to 103
O=C(O)c1cc(F)ccc1N1CCOCC1	158 to 160
N#CCc1ccc([N+](=O)[O-])cc1Br	66 to 68
O=C(O)C=CC1CCCCC1	54 to 56

SMILES	melting point [°C]
N#Cc1ccccc1Oc1ccc(N)cc1F	119 to 121
Nc1nc2ccccn2n1	123 to 125
CCOC(=O)c1cc(S(C)(=O)=O)ccc1N	130 to 132
O=C(O)Cc1c[nH]c2cc(Cl)ccc12	185 to 187
Nc1ccc(C(=O)N2CCc3ccccc32)cc1	185 to 187
CC(=O)c1c(C)nc2ccccc2c1N	152 to 154
NC(=O)c1c[nH]cn1	194 to 196
O=C(O)c1cccn1-c1ccc(I)cc1	199 to 201
NS(=O)(=O)CC1CCCC1	42 to 44
CCCNc1cc(F)ccc1[N+](=O)[O-]	61 to 63
Nc1nnc(N2CCC(C(=O)O)CC2)[nH]1	264 to 266
Cc1cc(Sc2nccn2C)ccc1N	101 to 103
O=C(O)c1ccc(NS(=O)(=O)c2ccc3c(c2)OCCO3)cc1	94 to 97
COCCNC(=O)CC#N	78 to 80
CC(C)CCn1nc(C(=O)O)c2ccccc2c1=O	133 to 135
Cc1ccc(-n2nc(C)cc2N)cc1	118 to 120
O=C(Nc1ccc(O)cc1)c1ccccc1	215 to 217
Cc1cc(O)nc(-c2ccccn2)n1	114 to 116
N#CCC(=O)c1ccc(Cl)cc1F	79 to 81
CC(C)Cc1ccc(C(=O)CBr)cc1	37 to 39
Nc1nc(N)nc(C2CCCC2)n1	202 to 204
COC(=O)c1ccc(S(N)(=O)=O)c([N+](=O)[O-])c1	139 to 141
O=C(O)Cc1ccc(OCCOc2ccccc2)cc1	169 to 171
